We go through ten compounds from patent publication US5284850A, “Terpene amino alcohols and medicinal uses thereof” (Kuraray Co., Ltd., priority 1985, dated 1994).

Usually inhibition stands for the percentage by which the read-out fell short of the control. The term LD50 denotes the dose at which mortality reaches 50%. The low end stands for a more toxic substance, the high end for a less toxic substance.

The test system of one series is mice of ddK strain. In words: KCN anoxia test. In kind it is in vivo. To be noted: for Number of survivals/Number of mice used / Survival rate (%): KCN 2.65 mg/kg i.v. after 30 minutes, 180 seconds; for Number of survivals/Number of mice used: control 0/8; for Survival rate (%): control 0; for anti-anoxic action (in words): KCN anoxia test.
The subject of series [1] is sensitized bronchial muscle. Put plainly: Antiallergic action: inhibition of egg albumin-induced contraction of sensitized guinea pig bronchial muscle. In kind it is tissue-based, guinea pigs of Hartley strain. The note with it: Cavia porcellus; for inhibition at 100 µM: 10^-4 M; for inhibition at 10 µM: 10^-5 M; for inhibition at 1 µM: 10^-6 M; for inhibition at 0.1 µM: 10^-7 M; for inhibition at 0.01 µM: 10^-8 M. The method, then:
Male guinea pigs of Hartley strain (body weight: about 250 g) were intraperitoneally or intramuscularly dosed with egg albumin (dose 100 mg/kg) and the same procedure was repeated after 3 days. After 3 to 4 weeks, the guinea pi-as were bled to death and the sensitized bronchial muscle was excised and cut into 1.5 mm thick rings. Three rings were joined to prepare a specimen. The specimen was suspended in a tissue bath and a load of 1 g was applied. […] After stabilization of the specimen (after about 1 hour), histamine hydrochloride was added to the bath at a final concentration of 10^-5 M. The contraction curve was recorded. After the contraction had been stabilized, the specimen was washed with 3 portions of Ringer's solution at 10-minute intervals to stabilize the contraction (about 1 hour was required). Then, the test compound was added to the tissue bath and, after an interval of 10 minutes, 5 mg/ml of egg albumin was added. The contraction amplitude of the specimen was measured and the percent inhibition was calculated according to the following formula. [formula] A: Contraction amplitude of control group when egg albumin is added A': Contraction amplitude of dosage group when egg albumin is added
H: Contraction amplitude of control group when histamine hydrochloride is added
H': Contraction amplitude of dosage group when histamine hydrochloride is added

The subject of the next series is Scopolamine-treated mice. Put plainly: Effect of improving the memories of amnesia models: scopolamine-induced amnesia, latency. In kind it is in vivo, mice of ddK strain. To be noted: 100 mg/kg oral; for improvement of shortening of latency induced by scopolamine (in words): compared with calcium hopantenate and pramiracetam. From the text:
(§1) The mice were allowed to take feeds and water freely. The device comprised a dark chamber (a rectangular box 20 cm high, with a floor grid, 12 cm×15 cm) and a bright chamber (a box with an open top and a floor grid, 15 cm×15 cm, surrounded by rectangular walls, 15 cm^w ×20 cm^H, on four sides). The two chambers were in contact with each other sharing a common surface of 15 cm×20 cm which is provided with an opening through which the mouse could move freely. A stainless steel wire, which was connected to an electric impulse apparatus (manufactured by Nippon Medical and Chemical Instruments Co., Ltd.), was placed on the floor grid in the dark chamber. The bright chamber was illuminated with a 60 W electric bulb from a height of about 45 cm above the floor grid. Each mouse was placed on the floor grid in the bright chamber. Immediately after the mouse (four limbs) entered the dark chamber, it was loaded with an electroshock cf DC 50 V through the floor grid for about three seconds. Immediately after electroshock loading, the mouse was taken out from the dark chamber. […] Scopolamine, 3 mg, was administered intraperitoneally to mice to induce amnesia 20 minutes before initiation of acquisition trials. A 5% aqueous suspension of each test compound in gum arabic solution was administered orally to mice immediately after carbon dioxide loading or to mice immediately after completion of the acquisition trials following scopolamine administration.

Another series concerns CO2 -treated mice. Put plainly: Effect of improving the memories of amnesia models: CO2-induced amnesia, latency. The note with it: 100 mg/kg oral. Type of series: in vivo, mice of ddK strain.
Description: as §1, with “Immediately after the acquisition trials, each mouse” for “Scopolamine, 3 mg,”, “left in a container filled with carbon dioxide for a period of 8 seconds” for “administered intraperitoneally to mice”, “amnesia.” for “amnesia 20 minutes before initiation of acquisition trials.”

The next series is described as follows: Acute toxicity (LD50). The note with it: mouse, in vivo; male ddK mice, 20-23 g, 10 animals per group, oral. From the text:
Toxicity studies also made it clear that the terpene amino alcohols according to the present invention are of low toxicity.

For series [2] the following is noted: cited from earlier work; for side effects: prior art.
For series [3], the system named is cerebral glucose uptake and oxidation of succinic acid in mitochondria. The note with it: cited from earlier work.
The mark [4] stands for this setting: 100 mg/kg i.p., *P < 0.05, **P < 0.01.
Where [5] appears, read: scopolamine-treated control 54.6 ± 14.5.
Setting [6] is: CO2-treated control 37.6 ± 19.6.

Structures can show the parent of a compound that is named as a salt.

Consider `CC(C)CCCC(C)CCCC(C)(O)C(O)CN(C)C(=O)c1cccnc1` (centres unmarked) [Compound (15), N-methyl-N-(3,7,11-trimethyl-2,3-hydroxydodecyl)nicotinamide], for which the “Number of survivals/Number of mice used” value in the series on mice of ddK strain (100 mg/kg i.p.) is listed as 7/9. Besides, the “Survival rate (%)” value in the series with mice of ddK strain (setting [4]) worked out at 77.8%. Besides, the “anti-anoxic action (in words)” value in the series with mice of ddK strain was “significantly high anti-anoxic action”. For the same compound, in series [1], the inhibition at 100 µM turned out to be 72.5%, the inhibition at 10 µM came out at 67% and the inhibition at 1 µM was found to be 93%. In the series on Scopolamine-treated mice (setting [5]), the “Latency, Mean ± S.E.” value turned out to be 65.2 ± 20.2 s. The “memory activating action, CO2-induced amnesia (in words)” value (“memory activating action” for short) with CO2 -treated mice is “showed a tendency to activate memory”. Also, the “Latency, Mean ± S.E.” value in the series on CO2 -treated mice (setting [6]) stood at 163.9 ± 49.1 s.
As to `CC(C)CCCC(C)CCCC(C)CCCC(C)(O)C(O)CN(C)C` (centres unmarked) [Compound (32)], in series [1], the inhibition at 10 µM came to 40%, the inhibition at 1 µM was 61.1%, the inhibition at 0.1 µM was found to be 25% and the inhibition at 0.01 µM is 10%. Further, the LD50 in “Acute toxicity (LD50)” is 3880 mg/kg.
Turning to `CC(C)CCCC(C)CCCC(C)CCCC(C)(O)C(O)CN(C)CCO` (centres unmarked) [Compound (35)], the “Number of survivals/Number of mice used” value in the series with mice of ddK strain (100 mg/kg i.p.) is recorded as 8/9. Moreover, the “Survival rate (%)” value with mice of ddK strain (setting [4]) is given as 88.9%. In addition, the “anti-anoxic action (in words)” value in the series on mice of ddK strain is “significantly high anti-anoxic action”. Further, in series [1], the inhibition at 10 µM came out at 27.1%, the inhibition at 1 µM stood at 85.5%, the inhibition at 0.1 µM worked out at 35% and the inhibition at 0.01 µM was 22%. In addition, the “improvement of shortening of latency induced by scopolamine (in words)” value in the series on Scopolamine-treated mice was “significantly improved the shortening of latency induced by scopolamine”. For the same compound, the “Latency, Mean ± S.E.” value in the series on Scopolamine-treated mice (scopolamine-treated control 169.0 ± 53.0, normal mice 382.4 ± 83.6) worked out at 320.2 ± 66.2 s. Further, the “memory activating action” value in the series on CO2 -treated mice is given as “showed a tendency to activate memory”. In the series on CO2 -treated mice (CO2-treated control 138.2 ± 43.6, normal mice 382.4 ± 83.6), the “Latency, Mean ± S.E.” value worked out at 258.4 ± 94.5 s.
Take `CC(C)CCCC(C)CCCC(C)CCCC(C)(O)C(O)CN(C)CCOC(=O)c1cccnc1` (centres unmarked) [Compound (36), 2-[N-(2,3-dihydroxy-3,7,11,15-tetramethylhexadecyl)-N-methylamino]ethyl nicotinate]: the inhibition at 10 µM in series [1] came out at 45%. Moreover, the inhibition at 1 µM in series [1] is 20%. Further, in series [1], the inhibition at 0.1 µM came to 8%. Also, the “improvement of shortening of latency induced by scopolamine (in words)” value with Scopolamine-treated mice was “significantly improved the shortening of latency induced by scopolamine”. Further, the “Latency, Mean ± S.E.” value with Scopolamine-treated mice (setting [5]) worked out at 78.5 ± 26.9 s; in the series with Scopolamine-treated mice (scopolamine-treated control 166.7 ± 36.7, normal mice 375.7 ± 74.9, *P < 0.05) it was 336.2 ± 55.4 s; with CO2 -treated mice (setting [6]) it was 216.0 ± 69.0 s; in the series with CO2 -treated mice (CO2-treated control 139.4 ± 27.5, normal mice 375.7 ± 74.9, *P < 0.05) it was 336.6 ± 77.8 s. For the same compound, in the series on CO2 -treated mice, the “memory activating action” value was “very significantly improved the shortening of latency induced by carbon dioxide”.
With `O=C(O)c1cc(=O)c2c(OCC(O)COc3cccc4oc(C(=O)O)cc(=O)c34)cccc2o1` [Disodium cromoglicate, disodium cromoglicate, reference compound], in series [1], the inhibition at 100 µM is 32.1%, the inhibition at 10 µM came to 21%, the inhibition at 1 µM stood at 7.8% and the inhibition at 0.1 µM was found to be 0%. Besides, the inhibition at 0.01 µM in series [1] came to 0%. In addition, the “antiallergic effect (in words)” value in series [2] (administered by the oral route) is “does not produce an antiallergic effect”.
As to `CC(C)CCCC(C)NC(C)C` (centres unmarked) [Iproheptine hydrochloride, iproheptine hydrochloride], the side effects result in series [2] is “drowsiness and nausea”.
Take `CN1CCC(=C2c3ccccc3CC(=O)c3sccc32)CC1` [Ketotifen, ketotifen]: the “time until antiallergic effect manifests itself” value in series [2] (delayed effect type) is listed as 4-6 weeks. Besides, in series [2], the side effects result is on record as “drowsiness”.
With `CC(C)N(CCNC(=O)CN1CCCC1=O)C(C)C` [Pramiracetam, pramiracetam, reference compound], the “Latency, Mean ± S.E.” value in the series with Scopolamine-treated mice (scopolamine-treated control 83.5 ± 21.5, normal mice 394.2 ± 84.0) came out at 98.1 ± 24.9 s; with CO2 -treated mice (CO2-treated control 106.5 ± 24.9, normal mice 394.2 ± 84.0) it was 175.8 ± 42.9 s. Moreover, the “memory activating action” value with CO2 -treated mice is reported as “failed to show a significant memory activating action”.
As for `COc1ccc(/C=C/C(=O)Nc2ccccc2C(=O)O)cc1OC` [Tranilast, tranilast, reference compound], in series [1], the inhibition at 100 µM stood at 32.1%, the inhibition at 10 µM stood at 54.8%, the inhibition at 1 µM came to 21% and the inhibition at 0.1 µM was found to be 0%. Also, the inhibition at 0.01 µM in series [1] worked out at 0%. In addition, the side effects entry in series [2] was “cystitis-like symptoms such as hematuria, pyuria and dysuria”.
Take “dihydroergotoxine mesilate [reference compound]”: the “reported cerebral actions (in words)” value in series [3] was “promotes cerebral glucose uptake and oxidation of succinic acid in mitochondria and increases the cerebral blood flow”. In addition, in the series with mice of ddK strain (3 mg/kg i.p.), the “Survival rate (%)” value turned out to be 10.0% and the “Number of survivals/Number of mice used” value is on record as 1/10. In addition, the “anti-anoxic action (in words)” value with mice of ddK strain is reported as “not sufficiently remarkable”.
